Test results reported in patent US20260193226A1, “MICROBIOCIDAL TETRAHYDROISOQUINOLINE DERIVATIVES” (SYNGENTA CROP PROTECTION AG, priority 2022, published 2026).

Tests used:
[1] = system: Mycosphaerella arachidis (Cercospora arachidicola); assay: Mycosphaerella arachidis (Cercospora arachidicola) / liquid culture (early leaf spot); type: cell-based; settings: compared to untreated control
Procedure: (§1) Example B9: Mycosphaerella arachidis (Cercospora arachidicola)/Liquid Culture (Early Leaf Spot) Conidia of the fungus from cryogenic storage are directly mixed into nutrient broth (PDB potato dextrose broth). After placing a (DMSO) solution of test compound into a microtiter plate (96-well format), the nutrient broth containing the fungal spores is added. The test plates are incubated at 24° C. and the inhibition of growth is determined photometrically 4 to 5 days after application.

[2] = system: Mycosphaerella graminicola (Septoria tritici); assay: Mycosphaerella graminicola (Septoria tritici) / liquid culture (Septoria blotch); type: cell-based; settings: Zymoseptoria tritici, compared to untreated control
Procedure: as §1, with “B15:” for “B9:”, “graminicola (Septoria tritici)/Liquid” for “arachidis (Cercospora arachidicola)/Liquid”, “(Septoria Blotch)” for “(Early Leaf Spot)”

SMILES	inhibition of growth at 20 ppm [1] [%]	inhibition of growth at 20 ppm [2] [%]
Cc1c([C@H]2CN(C(=O)CCCC=C(F)F)[C@@H](C)c3ccccc32)cnn1C (racemic) [Compound P-26, 6,6-difluoro-1-[rac-(1S,4S)-4-(1,5-dimethylpyrazol-4-yl)-1-methyl-3,4-dihydro-1H-isoquinolin-2-yl]hex-5-en-1-one]	≥ 80	≥ 80
Cc1c([C@H]2CN(C(=O)NCc3ccc(F)cc3F)[C@@H](C)c3ccccc32)cnn1C (racemic) [Compound P-44, rac-(1S,4S)-N-[(2,4-difluorophenyl)methyl]-4-(1,5-dimethylpyrazol-4-yl)-1-methyl-3,4-dihydro-1H-isoquinoline-2-carboxamide]	–	≥ 80
Cn1cc(C2CN(C(=O)CCc3ccc(F)cc3F)Cc3ccccc32)cn1 (stereo not drawn) [Compound P-1, 3-(2,4-difluorophenyl)-1-[4-(1-methylpyrazol-4-yl)-3,4-dihydro-1H-isoquinolin-2-yl]propan-1-one]	≥ 80	≥ 80
Cc1c(C2CN(C(=O)OCCC3CC3)Cc3ccccc32)cnn1C (stereo not drawn) [Compound P-3, 2-cyclopropylethyl 4-(1,5-dimethylpyrazol-4-yl)-3,4-dihydro-1H-isoquinoline-2-carboxylate]	–	≥ 80
CCCCCC(=O)N1Cc2ccccc2C(c2cnn(C)c2C)C1 (stereo not drawn) [Compound P-5, 1-[4-(1,5-dimethylpyrazol-4-yl)-3,4-dihydro-1H-isoquinolin-2-yl]hexan-1-one]	–	≥ 80
CCCCCCC(=O)N1Cc2ccccc2C(C)(c2cnn(C)c2)C1 (stereo not drawn) [Compound P-8, 1-[4-methyl-4-(1-methylpyrazol-4-yl)-1,3-dihydroisoquinolin-2-yl]heptan-1-one]	–	≥ 80
CCCCCCCCCC(=O)N1Cc2ccccc2C(c2cnn(C)c2C)C1 (stereo not drawn) [Compound P-9, 1-[4-(1,5-dimethylpyrazol-4-yl)-3,4-dihydro-1H-isoquinolin-2-yl]decan-1-one]	–	≥ 80
Cn1cc(C2(C)CN(C(=O)OCCC3CCCCC3)Cc3ccccc32)cn1 (stereo not drawn) [Compound P-12, 2-cyclohexylethyl 4-methyl-4-(1-methylpyrazol-4-yl)-1,3-dihydroisoquinoline-2-carboxylate]	–	≥ 80
Cc1c(C2CN(C(=O)COc3ccc(F)cc3F)Cc3ccccc32)cnn1C (stereo not drawn) [Compound P-13, 2-(2,4-difluorophenoxy)-1-[4-(1,5-dimethylpyrazol-4-yl)-3,4-dihydro-1H-isoquinolin-2-yl]ethanone]	–	≥ 80
Cc1c(C2CN(C(=O)CSc3ccc(F)cc3F)Cc3ccccc32)cnn1C (stereo not drawn) [Compound P-14, 2-(2,4-difluorophenyl)sulfanyl-1-[4-(1,5-dimethylpyrazol-4-yl)-3,4-dihydro-1H-isoquinolin-2-yl]ethanone]	≥ 80	≥ 80
Cc1c(C2CN(C(=O)COCc3ccc(F)cc3F)Cc3ccccc32)cnn1C (stereo not drawn) [Compound P-15, 2-[(2,4-difluorophenyl)methoxy]-1-[4-(1,5-dimethylpyrazol-4-yl)-3,4-dihydro-1H-isoquinolin-2-yl]ethanone]	–	≥ 80
Cc1c(C2CN(C(=O)CCCCC3CCSS3)Cc3ccccc32)cnn1C (stereo not drawn) [Compound P-18, 1-[4-(1,5-dimethylpyrazol-4-yl)-3,4-dihydro-1H-isoquinolin-2-yl]-5-(dithiolan-3-yl)pentan-1-one]	–	≥ 80
Cc1c(C2CN(C(=O)CCCC(C)C)Cc3ccccc32)cnn1C (stereo not drawn) [Compound P-19, 1-[4-(1,5-dimethylpyrazol-4-yl)-3,4-dihydro-1H-isoquinolin-2-yl]-5-methyl-hexan-1-one]	≥ 80	≥ 80
Cc1c(C2CN(C(=O)CCc3ccc(Br)cc3)Cc3ccccc32)cnn1C (stereo not drawn) [Compound P-20, 3-(4-bromophenyl)-1-[4-(1,5-dimethylpyrazol-4-yl)-3,4-dihydro-1H-isoquinolin-2-yl]propan-1-one]	–	≥ 80
C#CCCCCCC(=O)N1Cc2ccccc2C(c2cnn(C)c2C)C1 (stereo not drawn) [Compound P-21, 1-[4-(1,5-dimethylpyrazol-4-yl)-3,4-dihydro-1H-isoquinolin-2-yl]oct-7-yn-1-one]	–	≥ 80
Cc1c(C2CN(C(=O)CCc3ccc(Cl)c(Cl)c3)Cc3ccccc32)cnn1C (stereo not drawn) [Compound P-23, 3-(3,4-dichlorophenyl)-1-[4-(1,5-dimethylpyrazol-4-yl)-3,4-dihydro-1H-isoquinolin-2-yl]propan-1-one]	–	≥ 80

SMILES	inhibition of growth at 20 ppm [1] [%]	inhibition of growth at 20 ppm [2] [%]
Cc1c(C2CN(C(=O)CCCC=C(F)F)Cc3ccccc32)cnn1C (stereo not drawn) [Compound P-24, 1-[4-(1,5-dimethylpyrazol-4-yl)-3,4-dihydro-1H-isoquinolin-2-yl]-6,6-difluoro-hex-5-en-1-one]	–	≥ 80
Cc1c(C2CN(C(=O)OCCc3ccc(F)cc3)Cc3ccccc32)cnn1C (stereo not drawn) [Compound P-25, 2-(4-fluorophenyl)ethyl 4-(1,5-dimethylpyrazol-4-yl)-3,4-dihydro-1H-isoquinoline-2-carboxylate]	–	≥ 80
Cc1c(C2CN(C(=O)NCCC3CCCCCC3)Cc3ccccc32)cnn1C (stereo not drawn) [Compound P-32, N-(2-cycloheptylethyl)-4-(1,5-dimethylpyrazol-4-yl)-3,4-dihydro-1H-isoquinoline-2-carboxamide]	–	≥ 80
Cc1c(C2CN(C(=O)Nc3nc4ccccc4s3)Cc3ccccc32)cnn1C (stereo not drawn) [Compound P-33, N-(1,3-benzothiazol-2-yl)-4-(1,5-dimethylpyrazol-4-yl)-3,4-dihydro-1H-isoquinoline-2-carboxamide]	–	≥ 80
Cc1c(C2CN(C(=O)Nc3cc(C(C)(C)C)on3)Cc3ccccc32)cnn1C (stereo not drawn) [Compound P-34, N-(5-tert-butylisoxazol-3-yl)-4-(1,5-dimethylpyrazol-4-yl)-3,4-dihydro-1H-isoquinoline-2-carboxamide]	–	≥ 80
Cc1nc(NC(=O)N2Cc3ccccc3C(c3cnn(C)c3C)C2)ccc1Cl (stereo not drawn) [Compound P-35, N-(5-chloro-6-methyl-2-pyridyl)-4-(1,5-dimethylpyrazol-4-yl)-3,4-dihydro-1H-isoquinoline-2-carboxamide]	–	≥ 80
Cc1c(C2CN(C(=O)NCCCC3CCCC3)Cc3ccccc32)cnn1C (stereo not drawn) [Compound P-38, N-(3-cyclopentylpropyl)-4-(1,5-dimethylpyrazol-4-yl)-3,4-dihydro-1H-isoquinoline-2-carboxamide]	–	≥ 80
Cc1c(C2CN(C(=O)NCCC(C)(C)C3CC3)Cc3ccccc32)cnn1C (stereo not drawn) [Compound P-39, N-(3-cyclopropyl-3-methyl-butyl)-4-(1,5-dimethylpyrazol-4-yl)-3,4-dihydro-1H-isoquinoline-2-carboxamide]	–	≥ 80
Cc1c(C2CN(C(=O)Nc3ccc(Cl)cc3)Cc3ccccc32)cnn1C (stereo not drawn) [Compound P-40, N-(4-chlorophenyl)-4-(1,5-dimethylpyrazol-4-yl)-3,4-dihydro-1H-isoquinoline-2-carboxamide]	–	≥ 80
Cc1c(C2CN(C(=O)Nc3ccc(C4CC4)cc3)Cc3ccccc32)cnn1C (stereo not drawn) [Compound P-41, N-(4-cyclopropylphenyl)-4-(1,5-dimethylpyrazol-4-yl)-3,4-dihydro-1H-isoquinoline-2-carboxamide]	–	≥ 80
Cc1c(C2CN(C(=O)CCCCC3CC3)Cc3ccccc32)cnn1C (stereo not drawn) [Compound P-48, 5-cyclopropyl-1-[4-(1,5-dimethylpyrazol-4-yl)-3,4-dihydro-1H-isoquinolin-2-yl]pentan-1-one]	–	≥ 80
Cc1c([C@H]2CN(C(=O)NCCCC3CC3)[C@@H](C)c3ccccc32)cnn1C [Compound P-51, (1S,4S)-N-(3-cyclopropylpropyl)-4-(1,5-dimethylpyrazol-4-yl)-1-methyl-3,4-dihydro-1H-isoquinoline-2-carboxamide]	≥ 80	≥ 80
Cc1c([C@H]2CN(C(=O)NCCCCCF)[C@@H](C)c3ccccc32)cnn1C [Compound P-52, (1S,4S)-4-(1,5-dimethylpyrazol-4-yl)-N-(5-fluoropentyl)-1-methyl-3,4-dihydro-1H-isoquinoline-2-carboxamide]	–	≥ 80
Cc1c([C@H]2CN(C(=O)NCCCCC(F)F)[C@@H](C)c3ccccc32)cnn1C [Compound P-53, (1S,4S)-N-(5,5-difluoropentyl)-4-(1,5-dimethylpyrazol-4-yl)-1-methyl-3,4-dihydro-1H-isoquinoline-2-carboxamide]	–	≥ 80
Cc1c(C2CN(C(=O)OCCCCC(F)F)Cc3ccccc32)cnn1C (stereo not drawn) [Compound P-54, 5,5-difluoropentyl 4-(1,5-dimethylpyrazol-4-yl)-3,4-dihydro-1H-isoquinoline-2-carboxylate]	≥ 80	≥ 80
Cc1c(C2CN(C(=O)OCCCCCF)Cc3ccccc32)cnn1C (stereo not drawn) [Compound P-55, 5-fluoropentyl 4-(1,5-dimethylpyrazol-4-yl)-3,4-dihydro-1H-isoquinoline-2-carboxylate]	≥ 80	≥ 80
